{"source": "patent US20240189268A1", "about": "“SESQUITERPENE DERIVATIVE OR PHARMACEUTICALLY ACCEPTABLE SALT THEREOF AND USE THEREOF” (MFC CO., LTD., priority 2021, published 2024)", "key": {"aging mice [1]": {"tested_on": "aging mice", "experiment": "Grip strength of aging mice", "assay_type": "in vivo", "conditions": "for grip strength (muscle strength of forelimbs and hindlimbs): 24 to 25-month-old mice, once a week for 16 weeks, vs Control group", "description": "In addition, the muscle strengths of the forelimbs and hindlimbs of 24 to 25-month-old mice were evaluated for the three groups using a grip strength measuring machine, and the evaluation was conducted once a week for 16 weeks."}, "promoter of MSTN": {"tested_on": "promoter of MSTN", "experiment": "pMSTN_luc luciferase assay (MSTN promoter activity)", "assay_type": "cell-based", "conditions": "for MSTN promoter activity (luciferase) after Doxorubicin: pretreated 3 hours (1-1: 1, 3, 10 μM; 1-2: 1, 3, 10, 30 μM), vs Doxorubicin alone", "description": "After 12 hours of transfection with 1 μg of a pMSTN_luc vector (myostatin; new plasmid vector generated by inserting a promoter region of a MSTN gene into a plasmid vector (pGL4.15 vector) capable of luciferase experiment), Compound 1-1 (MFC-1) was pretreated (1, 3, and 10 μM) for 3 hours, respectively. Thereafter, luciferase activity was measured by harvesting after treatment with 0.5 μg/ml of an anticancer agent Doxorubicin for 6 hours. The results were illustrated in FIG. 1B.\n(Meanwhile, the luciferase assay used in FIG. 1B was an assay of transfecting a luciferase vector into a cell, treating a drug, and then treating luciferin to measure the amount of light emitted by the activation of the promoter of the gene by the drug. This means that it is possible to determine whether the promoter was activated and that the gene may be regulated at the transcriptional level by the drug touching the promoter region.)\nAfter 12 hours of transfection with 1 μg of the pMSTN_luc vector, Compound 1-2 (MFC-2) was pretreated (1, 3, 10, and 30 μM) for 3 hours, respectively. Thereafter, the luciferase activity was measured by harvesting after treatment with Doxorubicin 0.5 μg/ml for 6 hours. The results were illustrated in FIG. 1C.\nCedrol (Reference) and Compound 1-2 (MFC-2) were each treated (3 μM), respectively, and harvested 12 hours later to measure luciferase activity (FIG. 3J)."}, "aging mice [2]": {"tested_on": "aging mice", "experiment": "Muscle size (GC, TA, EDL) of aging mice fed compound", "assay_type": "in vivo", "conditions": "21-month-old aging mice, in feed for 3 months; vs Control group", "description": "21-month-old aging mice were fed with regular feed (Control), feed containing Cedrol (Reference), and feed containing Compound 1-2 (MFC-2) for 3 months for each group, and thereafter, an animal experiment was conducted to compare the sizes of the Gastrocnemius muscle (GC), Tibialis anterior (TA), and Extensor digitorum longus (EDL) muscles separated from the hind limbs of aging mice."}, "[3]": {"experiment": "Animal blood analysis of aging mice (CK, LDH, AST, TG)", "assay_type": "in vivo", "description": "For the Control group, Reference group, and MFC-2 group, an animal blood analysis experiment was conducted on aging mice. As a result, it was confirmed that the serum CK level of creatine kinase (CK), which was an enzyme contained in skeletal muscle, myocardium, smooth muscle, etc. to be released into the blood when the muscle was damaged, decreased in the MFC-2 group compared to other groups (FIG. 5A)."}, "NF-κB promoter": {"tested_on": "NF-κB promoter", "experiment": "pNF-κB luciferase assay (NF-κB promoter activity)", "assay_type": "cell-based", "description": "NF-κB was a transcription factor binding to a promoter region of a myostatin gene, a muscle mass regulation target protein, and to determine whether NF-κB was involved in the regulation of myostatin expression of Compound MFC-2, after 12 hours of transfection with 1 μg of the pNF-κB vector, Compound 1-2 (MFC-2) was treated (3 μM) for 12 hours. Thereafter, the luciferase activity was measured by harvesting (FIG. 3H). For reference, pGL3 and pGL4.15 shown in FIG. 3 were a type of luciferase plasmid vector, and the vector itself without the gene inserted was used as Control (control group). The vector in which the promoter region of the NF-κB gene was inserted into the luciferase vector was expressed as pNF-κB.\nAfter 12 hours of transfection with 1 μg of the pNF-κB vector, Compound 1-2 (MFC-2) was pretreated (3 μM) for 3 hours. Thereafter, 0.5 μg/ml of Doxorubicin was treated for 6 hours, harvested, and luciferase activity was measured (FIG. 3I)."}, "MuRF1": {"tested_on": "MuRF1", "experiment": "qRT-PCR of EDL muscle tissue of aging mice: MuRF1", "assay_type": "in vivo", "excerpt": "(§1) MuRF1 (muscle RING-finger protein 1) was a muscle-specific E3 ubiquitin ligase and a type of atrogene causing sarcopenia, and it was confirmed that the expression of Myostatin and MuRF1 was reduced in the EDL muscle tissue of the group fed with Compound MFC-2."}, "Myostatin": {"tested_on": "Myostatin", "experiment": "qRT-PCR of EDL muscle tissue of aging mice: myostatin", "assay_type": "in vivo", "conditions": "vs Control group, listed as MFC-2", "excerpt": "as §1"}, "[4]": {"conditions": "then Doxorubicin 0.5 μg/ml 6 hours"}, "[5]": {"conditions": "aging mice blood, compared to other groups"}, "[6]": {"conditions": "Doxorubicin 0.5 μg/ml for 6 hours, alone"}}, "note": "Entries after “also recorded” stand apart in the source; their conditions may differ."}
{"smiles": "C[C@@H]1CC[C@H]2C(C)(C)[C@H]3C[C@@]12CC[C@@]3(C)O", "note": "[Cedrol, reference compound]", "values": [{"measurement": "grip strength (muscle strength of forelimbs and hindlimbs)", "setting": "aging mice [1]", "result": "gradually increased compared to the Control group"}]}
{"smiles": "COc1cc(C(=O)O[C@]2(C)CC[C@@]34C[C@@H]2C(C)(C)[C@@H]3CC[C@H]4C)ccc1O", "note": "[Compound 1-1, (3R,3aS,6R,7R,8aS)-3,6,8,8-tetramethyloctahydro-1H-3a,7-metanoazulen-6-yl-4-hydroxy-3-methoxybenzoate]", "values": [{"measurement": "MSTN promoter activity (luciferase) after Doxorubicin", "setting": "promoter of MSTN; [4]", "result": "lower expression level than a group treated with Doxorubicin alone"}]}
{"smiles": "COc1cc(C(=O)O[C@]2(C)CC[C@@]34C[C@@H]2C(C)(C)[C@@H]3CC[C@H]4C)ccc1OC(C)=O", "note": "[Compound 1-2, (3R,3aS,6R,7R,8aS)-3,6,8,8-tetramethyloctahydro-1H-3a,7-methanoazulen-6-yl-4-acetoxy-3-methoxybenzoate]", "values": [{"measurement": "pMSTN-luciferase activity", "setting": "promoter of MSTN; 3 μM, harvested 12 hours later, compared with Cedrol", "result": "reduced pMSTN-luciferase activity more effectively than existing Cedrol (Reference)"}, {"measurement": "MSTN promoter activity (luciferase) after Doxorubicin", "setting": "promoter of MSTN; [4]", "result": "lower expression level than the group treated with Doxorubicin alone"}, {"measurement": "inhibitory effect on MSTN promoter activity compared with Compound 1-1", "setting": "promoter of MSTN; pretreatment, then Doxorubicin 0.5 μg/ml 6 hours", "result": "greater inhibitory effect than Compound 1-1 (MFC-1)"}, {"measurement": "muscle size (GC, TA, EDL)", "setting": "aging mice [2]", "result": "increase in muscle size"}, {"measurement": "LDH level", "setting": "[3]; aging mice blood, compared to Control group", "result": "decrease in LDH level"}, {"measurement": "AST level", "setting": "[3]; [5]", "result": "decrease in the levels thereof"}, {"measurement": "TG level", "setting": "[3]; [5]", "result": "decrease in the levels thereof"}, {"measurement": "serum CK level", "setting": "[3]; aging mice, compared to other groups", "result": "decreased"}, {"measurement": "NF-κB promoter activity (luciferase)", "setting": "NF-κB promoter; 3 μM for 12 hours, no Doxorubicin", "result": "reduces NF-κB promoter activity"}, {"measurement": "NF-κB promoter activity (luciferase) after Doxorubicin", "setting": "NF-κB promoter; pretreated 3 μM 3 hours, then Doxorubicin 0.5 μg/ml 6 hours, vs Doxorubicin alone", "result": "lower expression level than the group treated with Doxorubicin alone"}, {"measurement": "MuRF1 mRNA expression in EDL muscle tissue", "setting": "MuRF1", "result": "reduced"}, {"measurement": "grip strength (muscle strength of forelimbs and hindlimbs)", "setting": "aging mice [1]; listed as MFC-2", "result": "gradually increased compared to the Control group"}, {"measurement": "grip strength compared to Reference group (Cedrol)", "setting": "aging mice [1]; aging mice, from week 15", "result": "increased compared to the Reference group from week 15 later"}, {"measurement": "myostatin mRNA expression in EDL muscle tissue", "setting": "Myostatin", "result": "significantly decreased compared to the Control group; also recorded: reduced"}]}
{"smiles": "COc1cccc2c1C(=O)c1c(O)c3c(c(O)c1C2=O)C[C@@](O)(C(=O)CO)C[C@@H]3O[C@H]1C[C@H](N)[C@H](O)[C@H](C)O1", "note": "[Doxorubicin, reference compound]", "values": [{"measurement": "MSTN promoter activity (luciferase)", "setting": "promoter of MSTN; [6]", "result": "rapidly increased"}, {"measurement": "NF-κB promoter activity (luciferase)", "setting": "NF-κB promoter; [6]", "result": "increased"}]}
